Reference: US10144938B2, “Methods of processing aromatic compounds” (WISCONSIN ALUMNI RESEARCH FOUNDATION, priority 2015, dated 2018)

Tests used:
[1] = system: bacterial or yeast ethanologens; details: literature reports; cited from earlier work
R. sphaeroides 2.4.1 = assay: Glucose and xylose consumption in synthetic hydrolysate with individual aromatics added; assay type: cell-based, Rhodobacter sphaeroides; details: individual aromatics at concentrations present in SynH2, diluted to 20% strength, FIG. 9
Excerpt: For comparison, glucose and xylose utilization in 20% SynH2^− (no aromatics), as well as in 20% ACSH and 20% AHPCSH are also included.

Row | SMILES | Inhibitory to bacterial or yeast ethanologens [1] | Effect on glucose utilization (R. sphaeroides 2.4.1)
1 | O=C(O)c1ccccc1 [Benzoate] | inhibitory | –
2 | COc1cc(C(C)=O)ccc1O [Acetovanillone] | inhibitory | –
3 | O=C(O)/C=C/c1ccc(O)cc1 [p-Coumaric acid] | inhibitory | inhibited glucose utilization
4 | O=Cc1ccc(O)cc1 [4-Hydroxybenzaldehyde] | inhibitory | inhibited glucose utilization
5 | COc1cc(C=O)ccc1O [Vanillin] | inhibitory | –
6 | CC(=O)c1ccc(O)cc1 [4-Hydroxyacetophenone] | inhibitory | inhibited glucose utilization
